Where two headings read alike, the source gives them in different places.
Assays:
Format in all cases: physicochemical
[1] = Long-term stability (ICH), 25° C./60% RH
Method: Polymorph Form A was manufactured under Good Manufacturing Practices (GMP)-compliant conditions at a scale of 1.26 kg. The container closure for the batch consisted of double-lined low density polyethylene bags placed inside fiberboard drums, and the batch was on ICH stability under storage conditions of 25° C./60% relative humidity (RH) and 40° C./75% RH. Long-term stability data through the 36-month interval and accelerated stability data through the 6-month interval are shown in Tables 2 and 3.
Stability samples were tested according to the protocol (Table 5) and to the same specification as the drug substance. The available stability data for samples stored at 25° C./60% RH and 40° C./75% RH are summarized.

[2] = Log P/D by shake-flask method (1-octanol/buffer, HPLC); conditions: for logD: 1-octanol/buffer
Method: First, a sample stock solution of Polymorph Form A (100 mmol/L in DMSO) was prepared. 20 μL each of sample DMSO stock solutions was added into 4 ml-vials, then dispensed into 990 μL of 1-octanol-saturated buffer at varied pH and 990 μL of buffer-saturated 1-octanol, vortexed for 3 min and shaken for 1 hr at […], then centrifuged at 2500 rpm for 2 min to get rid of bubbles in the solutions. Finally, buffer-layer sample and 1-octanol-layer sample were separated, and then buffer-layer sample and 1-octanol-layer sample was injected into HPLC, integrated the chromatography and calculated the sample concentrations ratio in both buffer and 1-octanol phase. The Log P/D result was obtained by following equation: […]
The Log P/D value of Polymorph Form A was acquired by shake-flask method using a HPLC system. Since the concentrations of Polymorph Form A in buffer layer are too low to analyze, based on the comparison of blank and standard solution (S/N=5), 0.05 μmol/L was used in buffer layer to calculate Log D.

[3] = Intrinsic dissolution rate (IDR); conditions: for Detection in dissolution medium (IDR test): total 120 min
Method: Testing media: water, 0.1N HCl, pH 6.8 USP buffer
About 200 mg Polymorph Form A was weighed into the intrinsic dissolution apparatus (diameter: 0.795 cm) and compressed for 1 minute with 1 ton compression force to make the material compact. The intrinsic dissolution apparatus was slid into the dissolution test chuck and tightened. The shaft in the spindle was adjusted to ensure the exposed surface of the compacted tablet was 3.8 cm from the bottom of the vessel when lowered. The temperature of chamber water was set at 37° C., the shaft rotation at 100 rpm, and the sampling time points at 2, 5, 10, 15, 20, 30, 45, 60, 90 and 120 min. 5 mL of solution was sampled at each time point, and the samples filtered with 0.45 μm filter. The concentration of the filtrates was analyzed by HPLC.

Cc1cc(C)c(-c2ccc(NC(=O)[C@H](Cc3ccc(C(=O)NCCS(=O)(=O)[O-])cc3)c3ccc(-c4ccc(C(C)(C)C)cc4)cc3)cc2)c(C)c1.[Na+] [Polymorph Form A, Sodium (R)-2-(4-(2-(4′-(tert-butyl)-[1,1′-biphenyl]-4-yl)-3-oxo-3-((2′,4′,6′-trimethyl-[1,1′-biphenyl]-4-yl)amino)propyl)benzamido)ethane-1-sulfonate]
Appearance ([1]; 25° C./60% RH, 0 months): White | Assay (anhydrous w/w %) ([1]; 25° C./60% RH, 0 months): 101.3 w/w % | Chiral purity (area %) ([1]; 25° C./60% RH, 0 months): 99.9 area % | Individual related substance (area %, w/w), RRT 0.46 ([1]; 25° C./60% RH, 0 months): 0.08 area %, w/w | Individual related substance (area %, w/w), RRT 0.64 ([1]; 25° C./60% RH, 0 months): 0.12 area %, w/w | Individual related substance (area %, w/w), RRT 1.20 ([1]; 25° C./60% RH, 0 months): 0.05 area %, w/w | Purity (% area) ([1]; 25° C./60% RH, 0 months): 99.8 % area | Total related substances ([1]; 25° C./60% RH, 0 months): 0.25% | Water content (%) ([1]; 25° C./60% RH, 0 months): 2.1% | Appearance ([1]; 25° C./60% RH, 3 months): White | Assay (anhydrous w/w %) ([1]; 25° C./60% RH, 3 months): 102.5 w/w % | Chiral purity (area %) ([1]; 25° C./60% RH, 3 months): 99.8 area % | Individual related substance (area %, w/w), RRT 0.46 ([1]; 25° C./60% RH, 3 months): 0.08 area %, w/w | Individual related substance (area %, w/w), RRT 0.64 ([1]; 25° C./60% RH, 3 months): 0.12 area %, w/w | Individual related substance (area %, w/w), RRT 1.20 ([1]; 25° C./60% RH, 3 months): 0.05 area %, w/w | Purity (% area) ([1]; 25° C./60% RH, 3 months): 99.8 % area | Total related substances ([1]; 25° C./60% RH, 3 months): 0.25% | Water content (%) ([1]; 25° C./60% RH, 3 months): 6.1% | Appearance ([1]; 25° C./60% RH, 6 months): White | Assay (anhydrous w/w %) ([1]; 25° C./60% RH, 6 months): 101.1 w/w % | Chiral purity (area %) ([1]; 25° C./60% RH, 6 months): 99.8 area % | Individual related substance (area %, w/w), RRT 0.46 ([1]; 25° C./60% RH, 6 months): 0.08 area %, w/w | Individual related substance (area %, w/w), RRT 0.64 ([1]; 25° C./60% RH, 6 months): 0.11 area %, w/w | Individual related substance (area %, w/w), RRT 1.20 ([1]; 25° C./60% RH, 6 months): 0.05 area %, w/w | Purity (% area) ([1]; 25° C./60% RH, 6 months): 99.8 % area | Total related substances ([1]; 25° C./60% RH, 6 months): 0.24% | Water content (%) ([1]; 25° C./60% RH, 6 months): 6.5% | XRPD ([1]; 25° C./60% RH, 6 months): Same | Appearance ([1]; 25° C./60% RH, 9 months): White | Assay (anhydrous w/w %) ([1]; 25° C./60% RH, 9 months): 101.1 w/w % | Chiral purity (area %) ([1]; 25° C./60% RH, 9 months): 99.6 area % | Individual related substance (area %, w/w), RRT 0.46 ([1]; 25° C./60% RH, 9 months): 0.08 area %, w/w | Individual related substance (area %, w/w), RRT 0.64 ([1]; 25° C./60% RH, 9 months): 0.12 area %, w/w | Individual related substance (area %, w/w), RRT 1.20 ([1]; 25° C./60% RH, 9 months): 0.05 area %, w/w | Purity (% area) ([1]; 25° C./60% RH, 9 months): 99.8 % area | Total related substances ([1]; 25° C./60% RH, 9 months): 0.25% | Water content (%) ([1]; 25° C./60% RH, 9 months): 6.7% | Appearance ([1]; 25° C./60% RH, 12 months): White | Assay (anhydrous w/w %) ([1]; 25° C./60% RH, 12 months): 101.0 w/w % | Chiral purity (area %) ([1]; 25° C./60% RH, 12 months): 99.4 area % | Individual related substance (area %, w/w), RRT 0.46 ([1]; 25° C./60% RH, 12 months): 0.08 area %, w/w | Individual related substance (area %, w/w), RRT 0.64 ([1]; 25° C./60% RH, 12 months): 0.11 area %, w/w | Individual related substance (area %, w/w), RRT 1.20 ([1]; 25° C./60% RH, 12 months): 0.05 area %, w/w | Purity (% area) ([1]; 25° C./60% RH, 12 months): 99.8 % area | Total related substances ([1]; 25° C./60% RH, 12 months): 0.24% | Water content (%) ([1]; 25° C./60% RH, 12 months): 7.0% | XRPD ([1]; 25° C./60% RH, 12 months): Same | Appearance ([1]; 25° C./60% RH, 18 months): White | Assay (anhydrous w/w %) ([1]; 25° C./60% RH, 18 months): 100.9 w/w % | Chiral purity (area %) ([1]; 25° C./60% RH, 18 months): 99.5 area % | Individual related substance (area %, w/w), RRT 0.46 ([1]; 25° C./60% RH, 18 months): 0.08 area %, w/w | Individual related substance (area %, w/w), RRT 0.64 ([1]; 25° C./60% RH, 18 months): 0.12 area %, w/w | Individual related substance (area %, w/w), RRT 1.20 ([1]; 25° C./60% RH, 18 months): 0.06 area %, w/w | Purity (% area) ([1]; 25° C./60% RH, 18 months): 99.7 % area | Total related substances ([1]; 25° C./60% RH, 18 months): 0.26% | Water content (%) ([1]; 25° C./60% RH, 18 months): 6.9% | Appearance ([1]; 25° C./60% RH, 24 months): White | Assay (anhydrous w/w %) ([1]; 25° C./60% RH, 24 months): 101.6 w/w % | Chiral purity (area %) ([1]; 25° C./60% RH, 24 months): 100.0 area % | Individual related substance (area %, w/w), RRT 0.46 ([1]; 25° C./60% RH, 24 months): 0.08 area %, w/w | Individual related substance (area %, w/w), RRT 0.64 ([1]; 25° C./60% RH, 24 months): 0.12 area %, w/w | Individual related substance (area %, w/w), RRT 1.20 ([1]; 25° C./60% RH, 24 months): 0.07 area %, w/w | Purity (% area) ([1]; 25° C./60% RH, 24 months): 99.7 % area | Total related substances ([1]; 25° C./60% RH, 24 months): 0.27% | Water content (%) ([1]; 25° C./60% RH, 24 months): 7.4% | XRPD ([1]; 25° C./60% RH, 24 months): Same | Appearance ([1]; 25° C./60% RH, 36 months): White | Assay (anhydrous w/w %) ([1]; 25° C./60% RH, 36 months): 101.4 w/w % | Chiral purity (area %) ([1]; 25° C./60% RH, 36 months): 99.8 area % | Individual related substance (area %, w/w), RRT 0.31 ([1]; 25° C./60% RH, 36 months): 0.05 area %, w/w | Individual related substance (area %, w/w), RRT 0.46 ([1]; 25° C./60% RH, 36 months): 0.08 area %, w/w | Individual related substance (area %, w/w), RRT 0.64 ([1]; 25° C./60% RH, 36 months): 0.12 area %, w/w | Individual related substance (area %, w/w), RRT 1.20 ([1]; 25° C./60% RH, 36 months): 0.05 area %, w/w | Purity (% area) ([1]; 25° C./60% RH, 36 months): 99.7 % area | Total related substances ([1]; 25° C./60% RH, 36 months): 0.3% | Water content (%) ([1]; 25° C./60% RH, 36 months): 7.5% | XRPD ([1]; 25° C./60% RH, 36 months): Same | anhydrous assay value ([1]; long-term condition through the 36-month interval): around 101% | changes in assay value, total related substances, physical description, or solid state form (XRPD) ([1]; stored at 25° C./60% RH and 40° C./75% RH): No significant changes | Total related substances ([1]; stored at 25° C./60% RH and 40° C./75% RH, remained constant): around 0.25% | logD ([2]; pH 1.5, read-out: Log D Rep.1): > 4.32 | logD ([2]; pH 7.4, read-out: Log D Rep.1): > 4.32 | logD ([2]; pH 1.0, read-out: Log D Rep.1): > 4.32 | logD ([2]; pH 2.0, read-out: Log D Rep.1): > 4.32 | logD ([2]; pH 3.0, read-out: Log D Rep.1): > 4.32 | logD ([2]; pH 4.0, read-out: Log D Rep.1): > 4.32 | logD ([2]; pH 11.0, read-out: Log D Rep.1): > 4.32 | logD ([2]; pH range of 1.0 to 11.0, read-out: Log D values): > 4.32 | Log D Average ([2]; pH 1.0): >4.32 | Log D Rep.2 ([2]; pH 1.0): >4.32 | Log D Average ([2]; pH 1.5): >4.32 | Log D Rep.2 ([2]; pH 1.5): >4.32 | Log D Average ([2]; pH 2.0): >4.32 | Log D Rep.2 ([2]; pH 2.0): >4.32 | Log D Average ([2]; pH 3.0): >4.32 | Log D Rep.2 ([2]; pH 3.0): >4.32 | Log D Average ([2]; pH 4.0): >4.32 | Log D Rep.2 ([2]; pH 4.0): >4.32 | Log D Average ([2]; pH 7.4): >4.32 | Log D Rep.2 ([2]; pH 7.4): >4.32 | Log D Average ([2]; pH 11.0): >4.32 | Log D Rep.2 ([2]; pH 11.0): >4.32 | Detection in dissolution medium (IDR test) ([3]; 0.1N HCl): could not be detected | Intrinsic dissolution rate (mg/cm^2/min) ([3]; Water, 37° C., 100 rpm, from data of 10, 15 and 20 min): 0.9681 mg/cm^2/min | Detection in dissolution medium (IDR test) ([3]; pH 6.8 USP buffer): could not be detected | Concentration in dissolution medium (IDR test) ([3]; water, within 5 min, not detected, LOQ): < 305.1 ng/mL
